This is an account of results in ChEMBL document CHEMBL1201862, “PubChem BioAssay data set” (2004).

Some test systems named below: SF-539; CCRF-CEM; MCF7; M14; LOX IMVI; SF-295; HOP-92; MOLT-4; TK-10; KM12; HCC 2998; SNB-19; 786-0; NCI/ADR-RES; HL-60; HCT-15; NCI-H460; SK-MEL-5; Malme-3M; SNB-75.
Holding throughout (experiment): NCI tumour cell line growth inhibition, 48 h

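1) Cells in 96-well plates. 2) Compound, 48 h, 5 concentrations. 3) Linear interpolation between surrounding doses. 4) Unreached endpoint = highest concentration. Here, GI50 denotes the concentration required for 50% inhibition of growth.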 Active and inactive are the calls of the source. Rule as the data show it: active = GI50 up to about 1.1 µM and inactive = higher. Bounds are passed on as bounds.

Take `CN(C)CCCNc1ncnc2c1ncn2C1OC(CO)C(O)C1O` (stereo not given): the GI50 in the test with SF-539, with CCRF-CEM, in the test on MCF7, in the test on M14, in the test on LOX IMVI and in the test on SF-295 was > 100 µM (inactive) throughout. Besides, the GI50 in the test with HOP-92 is > 100 µM (inactive); in the test with MOLT-4 it was 54.8 µM (inactive); with TK-10, > 100 µM (inactive); in the test on KM12, > 100 µM (inactive); in the test on HCC 2998, > 100 µM (inactive); with SNB-19, > 100 µM (inactive). For the same molecule, the GI50 with 786-0 is > 100 µM (inactive); in the test with NCI/ADR-RES, > 100 µM (inactive); in the test with HL-60, > 100 µM (inactive); in the test on HCT-15, greater than 100 µM; with NCI-H460 it was > 100 µM (inactive); with SK-MEL-5, > 100 µM (inactive). In addition, the GI50 in the test with Malme-3M was > 100 µM (inactive).

As for `NS(=O)(=O)c1ccc(CNc2nc(-c3cccs3)nc3ccc(I)cc23)cc1`, the GI50 in the test on SNB-75 was 21.6 µM (inactive); in the test with SF-539, 11.2 µM (inactive); with MCF7 it was 0.573 µM (active); in the test on M14 it was 15.1 µM (inactive); in the test with LOX IMVI, 14.8 µM (inactive); with SF-295 it was 17.9 µM (inactive). For the same molecule, the GI50 with HOP-92 was 16 µM (inactive); in the test with MOLT-4, 21.9 µM (inactive); with TK-10 it was 9.16 µM (inactive); in the test with KM12, 8.57 µM (inactive); in the test with HCC 2998, 13.8 µM (inactive); with SNB-19, 17.4 µM (inactive). The GI50 in the test with 786-0 was 17.5 µM (inactive); in the test with NCI/ADR-RES it was 26.2 µM (inactive); with HCT-15, 13.1 µM; with NCI-H460, 15 µM (inactive); in the test with SK-MEL-5, 14.1 µM (inactive); in the test with Malme-3M it was 14.7 µM (inactive).

Consider `O=C(N/N=C(COc1ccc(Cl)cc1)\N=C\c1ccncc1)c1ccncc1`, for which the GI50 in the test with SF-539, in the test on CCRF-CEM, with MCF7, with M14, in the test with LOX IMVI and with SF-295 was > 100 µM (inactive) in each case. Moreover, the GI50 with HOP-92 was 43.3 µM (inactive); in the test with MOLT-4, > 100 µM (inactive); in the test on TK-10 it was > 100 µM (inactive); with KM12, > 100 µM (inactive); in the test on HCC 2998, > 100 µM (inactive); with SNB-19, > 100 µM (inactive). Besides, the GI50 with 786-0 was > 100 µM (inactive); in the test on NCI/ADR-RES it was > 100 µM (inactive); in the test with HL-60 it was > 100 µM (inactive); with HCT-15, greater than 100 µM; in the test on NCI-H460 it was > 100 µM (inactive); in the test with Malme-3M it was > 100 µM (inactive).

Consider `Clc1ccc(/N=C2\c3ccccc3CN2c2ccc(Cl)cc2)cc1`, for which the GI50 was 63.8 µM (inactive) with SNB-75; 30.2 µM (inactive) in the test with SF-539; < 0.01 µM (active) with CCRF-CEM; 5.2 µM (inactive) in the test with MCF7; 31.7 µM (inactive) with M14; > 100 µM (inactive) in the test with LOX IMVI. Further, the GI50 with SF-295 was 10.4 µM (inactive); in the test on HOP-92, 39.9 µM (inactive); in the test on MOLT-4, > 100 µM (inactive); in the test with TK-10 it was 87.5 µM (inactive); with KM12, 77.8 µM (inactive); in the test on HCC 2998, 28.4 µM (inactive). Besides, the GI50 in the test on SNB-19 is > 100 µM (inactive); with 786-0, > 100 µM (inactive); with NCI/ADR-RES, > 100 µM (inactive); with HCT-15 it was greater than 100 µM; with NCI-H460, 62.8 µM (inactive); with SK-MEL-5 it was 1.43 µM (inactive).

`COc1cc(/C=C2\C(=O)N(c3ccccc3Cl)C(c3ccccc3)S2(=O)=O)cc(OC)c1OC` (stereo not given): the GI50 in the test with SF-539 is 20 µM (inactive); in the test on CCRF-CEM, 16 µM (inactive); with MCF7, 25.6 µM (inactive); with M14 it was 31.9 µM (inactive); in the test on LOX IMVI, 21.7 µM (inactive); in the test on SF-295, 34 µM (inactive). Also, the GI50 was 41.3 µM (inactive) in the test with HOP-92; 15.3 µM (inactive) in the test on MOLT-4; 62.7 µM (inactive) with TK-10; 27.2 µM (inactive) in the test on KM12; > 100 µM (inactive) in the test with HCC 2998; 34.7 µM (inactive) in the test with SNB-19. Besides, the GI50 in the test with 786-0 is 31.2 µM (inactive); with NCI/ADR-RES it was 29.6 µM (inactive); in the test with HL-60 it was 28.6 µM (inactive); in the test on HCT-15 it was 44.7 µM; in the test on NCI-H460, 52.2 µM (inactive); in the test with SK-MEL-5 it was 18.6 µM (inactive). Also, the GI50 with Malme-3M is 28.7 µM (inactive).

As to `O=[N+]([O-])/C(Cl)=C(\Sc1ccccc1)C(Cl)=C(Cl)Cl`, the GI50 with SF-539 was 1.56 µM (inactive); in the test on CCRF-CEM, 0.296 µM (active); in the test on MCF7 it was 0.159 µM (active); in the test on M14, 0.188 µM (active); with LOX IMVI it was 0.207 µM (active); with SF-295 it was 3.43 µM (inactive). The GI50 in the test with HOP-92 is 1.91 µM (inactive); in the test with MOLT-4, 0.348 µM (active); with TK-10 it was 1.8 µM (inactive); with KM12, 1.79 µM (inactive); with HCC 2998, 1.93 µM (inactive); in the test on SNB-19, 2.22 µM (inactive). In addition, the GI50 in the test with 786-0 was 0.308 µM (active); in the test with NCI/ADR-RES it was 0.216 µM (active); with HL-60, 0.273 µM (active); with HCT-15, 0.42 µM; in the test on NCI-H460 it was 1.54 µM (inactive); in the test with SK-MEL-5 it was 0.54 µM (active). The GI50 in the test with Malme-3M is 0.647 µM (active).

`O=S(=O)(O)c1ccc(/N=N/c2ccc(/N=N/c3c(O)c(S(=O)(=O)O)cc4cc(S(=O)(=O)O)ccc34)cc2)cc1`: the GI50 in the test on SF-539, with CCRF-CEM, in the test with MCF7, in the test on M14, in the test with SF-295 and with HOP-92 was > 100 µM (inactive) each time. Further, the GI50 with MOLT-4, in the test with TK-10, with KM12, with HCC 2998, in the test on SNB-19 and in the test on 786-0 was > 100 µM (inactive) each time. Further, the GI50 in the test on NCI/ADR-RES is > 100 µM (inactive); with HL-60, > 100 µM (inactive); with HCT-15, greater than 100 µM; with NCI-H460, > 100 µM (inactive); in the test with SK-MEL-5, > 100 µM (inactive); in the test on Malme-3M, > 100 µM (inactive).

As to `COc1ccc(/C=N/n2c(Cc3ccc(Cl)cc3)n[nH]c2=O)c(OC)c1`, the GI50 in the test on SNB-75 was 15.9 µM (inactive); with SF-539 it was > 100 µM (inactive); with CCRF-CEM it was > 100 µM (inactive); in the test with MCF7 it was 33.6 µM (inactive); in the test on M14, 94.8 µM (inactive); in the test with LOX IMVI, 60.5 µM (inactive). The GI50 in the test with SF-295 was 19 µM (inactive); with HOP-92 it was 29.2 µM (inactive); with MOLT-4 it was > 100 µM (inactive); in the test with TK-10, 18.2 µM (inactive); in the test with KM12 it was 27.3 µM (inactive); with HCC 2998, 44.6 µM (inactive). For the same molecule, the GI50 was 20.7 µM (inactive) in the test with SNB-19; 22.4 µM (inactive) in the test with 786-0; 12.3 µM (inactive) in the test on NCI/ADR-RES; 36.3 µM in the test with HCT-15; > 100 µM (inactive) in the test on NCI-H460; > 10 µM (inactive) in the test on SK-MEL-5. In the test on Malme-3M, the GI50 is > 100 µM (inactive).

On to `O=C1c2ccccc2CN1c1ccc(O)cc1`, for which the GI50 with SF-539, in the test on CCRF-CEM, in the test on MCF7, with M14, in the test on LOX IMVI and with SF-295 was > 100 µM (inactive) throughout. The GI50 with HOP-92, with MOLT-4, in the test with TK-10, in the test with KM12, in the test on HCC 2998 and with SNB-19 was > 100 µM (inactive) each time. Moreover, the GI50 with 786-0 is > 100 µM (inactive); in the test with NCI/ADR-RES, > 100 µM (inactive); in the test with HL-60, > 100 µM (inactive); in the test on HCT-15, greater than 100 µM; with NCI-H460 it was > 100 µM (inactive); in the test on SK-MEL-5, > 100 µM (inactive). For the same molecule, in the test with Malme-3M, the GI50 is > 100 µM (inactive).

On to `O=C(O)Cc1ccc(/N=N/c2c(O)c(C(=O)O)cc3ccccc23)cc1`, for which the GI50 in the test on SNB-75, in the test with SF-539, with CCRF-CEM, with MCF7, in the test on M14 and with SF-295 was > 100 µM (inactive) each time. Also, the GI50 in the test on HOP-92, in the test with MOLT-4, with TK-10, in the test on KM12, in the test on HCC 2998 and in the test with SNB-19 was > 100 µM (inactive) each time. Also, the GI50 with 786-0 was > 100 µM (inactive); with NCI/ADR-RES, > 100 µM (inactive); with HL-60, > 100 µM (inactive); in the test with HCT-15 it was greater than 100 µM; in the test on NCI-H460, > 100 µM (inactive); in the test with SK-MEL-5, 71.8 µM (inactive). Further, the GI50 with Malme-3M was 24.8 µM (inactive).

`Cn1nc(S(N)(=O)=O)s/c1=N/C(N)=S`: the GI50 with SF-539, in the test with CCRF-CEM, in the test on MCF7, with M14, in the test with LOX IMVI and in the test with SF-295 was > 100 µM (inactive) each time. Besides, the GI50 with HOP-92, in the test on MOLT-4, in the test with TK-10, in the test with KM12, in the test on HCC 2998 and in the test with SNB-19 was > 100 µM (inactive) each time. In addition, the GI50 with 786-0 was > 100 µM (inactive); in the test on NCI/ADR-RES it was > 100 µM (inactive); in the test with HL-60, > 100 µM (inactive); with HCT-15, greater than 100 µM; with NCI-H460 it was > 100 µM (inactive); in the test on SK-MEL-5 it was > 100 µM (inactive). Also, the GI50 in the test on Malme-3M was > 100 µM (inactive).
